Data set [1] can be described thus: Clinical tolerability / adverse effects. As to conditions: view of the Applicant.
A further data set deals with depressed patients. The conditions noted are these: 10-50 mg intravenously, with a monoamino-oxydase inhibitor; cited from earlier work.
In data set [2] the test system is cerebral serotonin. The conditions noted are these: statement without data; cited from earlier work.
The test system of the next data set is female mice. Put plainly: Irwin's schema (behavioural symptomatology). The data set is classed as in vivo. As to conditions: for symptomatology of our product observed with comparator: L-glutamic acid and L-5 hydroxytryptophan: separate administration at equimolecular doses.
For data set [3] the following is noted: clinical use, as described; cited from earlier work.
Another data set has as its system MAO. The conditions noted are these: non-hydrazinic MAO inhibitor; cited from earlier work.
The subject of the next data set is I.C.R. Swiss albino mice. Put plainly: Acute toxicity, intraperitoneal. Format: in vivo. How it is done: (§1) The studies of acute toxicity have been made with I.C.R. Swiss albino mice of both sexes. We express the toxicity date with the parameters of lethal dose 16 (LD16), lethal dose 50 (LD50) and lethal dose 84 (LD84), in mg/kg. of weight. The substance was administered intraperitoneally.

Data set [4] in a line: Acute toxicity, intraperitoneal. Format: in vivo, I.C.R. Swiss albino mice. The conditions noted are these: mouse, in vivo, ip; mice of both sexes, intraperitoneal. How it is done: as §1
In a further data set the test system is depressive patient. As to conditions: total dose 150 mg, cited from earlier work; for response of depressive symptoms: amitryptiline with anticonvulsivant therapy for two months, 5-hydroxytryptophan 5 days, L-DOPA previously.
The subject of data set [5] is antidepressive effects of the MAO inhibitors. As to conditions: in vivo; cited from earlier work.
A further data set has as its system serotonin in the brain. The conditions noted are these: dogs; cited from earlier work.
For data set [6] the following is noted: cited from earlier work.
Data set [7] concerns uptake I (presynaptic membrane). The conditions noted are these: presynaptic membrane level; cited from earlier work.
Data set [8] deals with patients affected by Parkinson's disease. As to conditions: human, in vivo; cited from earlier work.
In data set [9] the test system is patients in depressive phase. The conditions noted are these: 5 weeks, tablets 20, 50 and 100 mg three times a day; cited from earlier work.
The test system of data set [10] is serotonin in the brains of rats. The conditions noted are these: administered at the same time as monoamino-oxydase inhibitors; cited from earlier work.
For data set [11], the system named is responses to serotonin (rat's isolated uterus). As to the kind of experiment: Antiserotoninic activity, rat's isolated uterus. The conditions noted are these: 40 mcg/ml.
The nature of data set [12]: Analgesic activity, thermal analgesia (hot plate at 55° C.). Format: in vivo.
In data set [13] the test system is cerebral serotonin. As to the kind of experiment: Cerebral serotonin level (inferred from symptomatology of the animals injected). The data set is classed as in vivo. As to conditions: compared with sole administration of L-5-hydroxytryptophan.
A short description of data set [14]: Analgesic activity, chemical analgesia. Format: in vivo.
[15] abbreviates: mice of both sexes, intraperitoneal.

Where only a bound is given, the exact number is not on record here.

Regarding “5-hydroxytryptophan glutamate [the product obtained by this method]”, the tolerability result in [1] was “great tolerability”.
With `NC(Cc1c[nH]c2ccc(O)cc12)C(=O)O` (racemic) [DL-5-OH-tryptophan], in the data set on depressed patients, the improvement of depression result is listed as “improvement of depression in one day”.
Consider `N[C@@H]1C[C@H]1c1ccccc1` (relative stereo) [Tranilcypromine], for which the “cerebral serotonin raising action compared with our product” value in the data set with cerebral serotonin [2] was “very inferior to our product”. Also, in the data set with female mice, the “symptomatology of our product observed with comparator” value (“symptomatology” below) is “Neither is this symptomatology observed”. Further, the “adverse effects and secondary reactions” value in [3] is “great amount of adverse effects and secondary reactions”. In addition, the “inhibition of MAO” value in the data set on MAO is reported as “powerful inhibitor of non-hydrazinic MAO”. In the data set with I.C.R. Swiss albino mice (setting [15]), this compound showed an LD16 of 7.3 mg/kg and an LD84 of 18 mg/kg. In addition, in data set [4], the LD50 (in general, the dose expected to kill half of the subjects tested) came out at 11.3 mg/kg.
For `N[C@@H](Cc1c[nH]c2ccc(O)cc12)C(=O)O` [5-hydroxytryptophan], in the data set on depressive patient (5 days), the “time to disappearance of the depressive symptoms after treatment” value is reported as “two”. For the same compound, the “response of depressive symptoms” value in the data set on depressive patient is “rapid improvement in the state of mind”. Besides, the “potentiation of the antidepressive effects of the MAO inhibitors” value in data set [5] is reported as “potentiation of the antidepressive effects of the MAO inhibitors has been observed”. For the same compound, the “raising of the level of serotonin in the brain” value in the data set with serotonin in the brain is 10 times. The tissue penetration entry in data set [6] (animals) is on record as “rapidly penetrates most tissues”. For the same compound, the conversion into serotonin entry in data set [6] (if there is decarboxylase) is recorded as “converted into serotonin”.
As to `CN(C)CCCN1c2ccccc2CCc2ccccc21` [Imipramine], the “incorporation blockage (uptake I)” value in data set [7] is “produces an incorporation blockage (uptake I) on the presynaptic membrane level”. In the data set with I.C.R. Swiss albino mice (setting [15]), this compound gave an LD16 of 33.3 mg/kg and an LD84 of 80 mg/kg.
Take `N[C@@H](Cc1c[nH]c2ccc(O)cc12)C(=O)O` [L-5-hydroxytryptophan]: in [8], the anti-tremor effect entry is recorded as “visible anti-tremor effect”; the “antidepressive action in Parkinson's disease patients” value was “intense antidepressive action with improvement of the affective field, of the psychomotor impulse and activation of personal initiative”. Besides, the “symptomatology” value with female mice was “not observed”. Further, the “remission of depressive symptoms” value in data set [9] was “symptoms remitting so rapidly that even the patients themselves were impressed”.
For the compound `N[C@@H](Cc1ccc(O)c(O)c1)C(=O)O` [L-DOPA], in the data set with depressive patient, the “response of depressive symptoms” value is “without obtaining any result”.
On to `N[C@@H](CCC(=O)O)C(=O)O` [L-glutamic acid], for which the “symptomatology” value with female mice was “not observed”.
`CN(C)CCC=C1c2ccccc2CCc2ccccc21` [amitryptiline]: the “response of depressive symptoms” value in the data set with depressive patient is recorded as “did not produce any positive response”.
`N[C@@H](Cc1c[nH]c2ccccc12)C(=O)O` [tryptophan]: the “increase in brain serotonin with monoamino-oxydase inhibitors” value in data set [10] is listed as “the increase becomes higher”. The “potentiation of the antidepressive effects of the MAO inhibitors” value in [5] is reported as “potentiation of the antidepressive effects of the MAO inhibitors has been observed”.
Turning to “L-5 hydroxytryptophan monohydrate L-glutamate [Our product]”, the “inhibition of the responses to serotonin” value in data set [11] turned out to be 36%. Also, the “analgesic action, hot plate” value in [12] was “significant analgesic action”. Also, in the data set on female mice (10 mg/kg orally), the duration of symptoms is no less than 120 min and the “onset of symptoms after administration” value is 15 min. Moreover, the “pharmacological activity compared with each ingredient separately” value in the data set with female mice (equimolecular doses) is on record as “superior to that of each ingredient separately”. The “symptoms (Irwin's schema)” value with female mice (our product 10 mg/kg orally, female mice 28±2 g) is “increase in the state of alertness, a reaction to cleanliness and an increase in spontaneous activity, in addition to restlessness and irritability”. In addition, the “adverse effects and secondary reactions” value in data set [3] was “No interesting secondary reactions have yet been described”. In addition, in the data set with cerebral serotonin [13], the “raising of cerebral serotonin levels” value is “raises the levels of cerebral serotonin, in a greater way than the sole administration of L-5-hydroxytryptophan”. Besides, in the data set with I.C.R. Swiss albino mice (from the foregoing table), the “times less toxic than imipramine” value was determined as 6 times and the “times less toxic than tranilcypromine” value was 300 times. In the data set with I.C.R. Swiss albino mice (setting [15]), this compound yielded an LD16 of 260.5 mg/kg, an LD50 of 323 mg/kg and an LD84 of 401.4 mg/kg. The “analgesic effect compared with dextropropoxyphene” value in data set [14] (10 mg/kg oral vs dextropropoxyphene 50 mg/kg intraperitoneal, technique (chemical or thermal) not specified) was “same analgesic effect as dextropropoxyphene”. In addition, the “analgesic action, chemical analgesia” value in [14] (in vivo) is “significant analgesic action”.

The values are drawn from patent US4029807A (priority 1975, dated 1977).
